This is an account of results in patent US11021446B2 (NOVARTIS AG, priority 2013, dated 2021).

pEC50: −log10 of the molar value.

For the assay, the target named is T1, human Farnesoid X Receptor (FXR) ligand binding domain (GST-FXR LBD) (Homo sapiens, UniProt Q96RI1).
T1 construct: purchased Invitrogen
T1 sequence (Q96RI1 193-472 isoform Q96RI1-2): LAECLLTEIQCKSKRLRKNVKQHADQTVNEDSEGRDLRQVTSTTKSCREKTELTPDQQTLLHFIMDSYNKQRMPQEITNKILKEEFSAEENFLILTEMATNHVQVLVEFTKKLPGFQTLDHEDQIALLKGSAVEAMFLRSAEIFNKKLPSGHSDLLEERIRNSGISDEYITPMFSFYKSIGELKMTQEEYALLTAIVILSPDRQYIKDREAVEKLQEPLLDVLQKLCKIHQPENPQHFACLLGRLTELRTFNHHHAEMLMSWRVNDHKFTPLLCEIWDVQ
The assay can be described thus: Human GST-FXR LBD co-activator interaction assay (FXR HTRF assay). It is filed as biochemical. Particulars: GST-FXR LBD interaction with biotin-labeled SRC-1 peptide, FRET, response relative to GW4064, read-out: FXR coactivator interaction assay (HTRF). The text has this:
Human GST-FXR LBD Co-Activator Interaction Assay
The FXR HTRF assay is a biochemical assay measuring the interaction between FXR and a coactivator protein (SRC1). The ligand-induced interaction with a coactivator protein is a critical step in transcriptional activation by FXR. Thus, this is an assay designed to measure FXR agonist activity of the test compounds.
Recombinant human Farnesoid X Receptor (FXR) ligand binding domain (amino acids 193-472) fused to glutathione S-transferase (GST) purified protein (GST-FXR LBD) was purchased (Invitrogen). The ligand-dependent interaction between GST-FXR LBD and a peptide derived from Steroid Receptor Coactivator-1 (SRC-1) was monitored by Fluorescence Resonance Energy Transfer (FRET). […] Test compounds (in DMSO solution) and detection reagents (anti-GST-Cryptate labeled antibody and Streptavidin-XL665 conjugate; CisBio) were added in assay buffer containing 50 mM KF. Plates are incubated at room temperature in the dark for 2.5 hrs before reading on an Envision (PerkinElmer) at 665 nm and 590 nm. The HTRF assay results were calculated from the 665 nm/590 nm ratio (ratio=(A665 nm/A590 nm)×10^4) and expressed in Delta F %=(Ratiosample−Rationegative)/Rationegative×100.
A negative control (without Streptavidin-XL665) was run with each assay and represented the background fluorescence. A reference FXR agonist, (E)-3-(2-chloro-4-((3-(2,6-dichlorophenyl)-5-isopropylisoxazol-4-yl)methoxy)styryl)benzoic acid (Compound GW4064), was included in each experiment as positive control. The efficacy of each test compound was compared to that of GW4064. At each concentration, the relative activity of the test compound was expressed as Response %=(Rsample−RDMSO)/(Rpositive−RDMSO), where Rsample is the HTRF response (expressed in Delta F %) for the test compound, Rpositive is the maximal response for GW4064 at saturating concentrations, and RDMSO is the response for DMSO control. The EC50 values were calculated using GraphPad Prism (GraphPad Software) using non-linear regression curve fit (log(agonist) vs. response-variable slope (four parameters)).

Consider `Cc1cccc(CN(CC(=O)Nc2cc(C(=O)O)ccc2F)C(=O)c2nn(C)c3c2COc2ccc(Cl)cc2-3)c1` [Compound 3, 3-(2-(8-chloro-1-methyl-N-(3-methylbenzyl)-1,4-dihydrochromeno[4,3-c]pyrazole-3-carboxamido)acetamido)-4-fluorobenzoic acid], for which the pEC50 was 9.29.

`Cc1cccc(CN(CC(=O)Nc2cc(C(=O)O)ccc2F)C(=O)c2nn(C)c3c2COc2ccccc2-3)c1` [Compound 4, 4-fluoro-3-(2-(1-methyl-N-(3-methylbenzyl)-1,4-dihydrochromeno[4,3-c]pyrazole-3-carboxamido)acetamido)benzoic acid]: the pEC50 was 9.12.

As to `Cc1ccc2c(c1)-c1c(c(C(=O)N(CC(=O)Nc3cccc(C(=O)O)c3)Cc3ccccc3F)nn1C)CO2` [Compound 5, 3-(2-(N-(2-fluorobenzyl)-1,8-dimethyl-1,4-dihydrochromeno[4,3-c]pyrazole-3-carboxamido)acetamido)benzoic acid], the pEC50 was 9.10.

For the molecule `Cc1cccc2c1OCc1c(C(=O)N(CC(=O)Nc3cccc(C(=O)O)c3)Cc3ccccc3F)nn(C)c1-2` [Compound 6, 3-(2-(N-(2-fluorobenzyl)-1,6-dimethyl-1,4-dihydrochromeno[4,3-c]pyrazole-3-carboxamido)acetamido)benzoic acid], the pEC50 is 8.62.

`Cn1nc(C(=O)N(CC(=O)Nc2cccc(C(=O)O)c2)Cc2ccccc2F)c2c1-c1cc(F)ccc1OC2` [Compound 7, 3-(2-(8-fluoro-N-(2-fluorobenzyl)-1-methyl-1,4-dihydrochromeno[4,3-c]pyrazole-3-carboxamido)acetamido)benzoic acid]: the pEC50 was 9.00.

With `Cn1nc(C(=O)N(CC(=O)Nc2cccc(C(=O)O)c2)Cc2ccccc2F)c2c1-c1ccc(F)cc1OC2` [Compound 8, 3-(2-(7-fluoro-N-(2-fluorobenzyl)-1-methyl-1,4-dihydrochromeno[4,3-c]pyrazole-3-carboxamido)acetamido)benzoic acid], the pEC50 was 8.48.

With `Cn1nc(C(=O)N(CC(=O)Nc2cccc(C(=O)O)c2)Cc2ccccc2F)c2c1-c1ccc(Cl)cc1OC2` [Compound 9, 3-(2-(7-chloro-N-(2-fluorobenzyl)-1-methyl-1,4-dihydrochromeno[4,3-c]pyrazole-3-carboxamido)acetamido)benzoic acid], the pEC50 is 8.44.

Turning to `Cn1nc(C(=O)N(CC(=O)Nc2cccc(C(=O)O)c2)Cc2ccccc2F)c2c1-c1cc(F)c(F)cc1OC2` [Compound 10], the pEC50 was 8.77.

For `Cn1nc(C(=O)N(CC(=O)Nc2cccc(C(=O)O)c2)Cc2ccccc2F)c2c1-c1cc(F)cc(F)c1OC2` [Compound 11, 3-(2-(6,8-difluoro-N-(2-fluorobenzyl)-1-methyl-1,4-dihydrochromeno[4,3-c]pyrazole-3-carboxamido)acetamido)benzoic acid], the pEC50 was 8.48.

Take `Cn1nc(C(=O)N(CC(=O)Nc2cccc(C(=O)O)c2)Cc2ccccc2F)c2c1-c1ccccc1OC2` [Compound 12, 3-(2-(N-(2-fluorobenzyl)-1-methyl-1,4-dihydrochromeno[4,3-c]pyrazole-3-carboxamido)acetamido)benzoic acid]: the pEC50 was 8.27.

Turning to `Cc1cc2c(cc1Cl)-c1c(c(C(=O)N(CC(=O)Nc3cccc(C(=O)O)c3)Cc3ccccc3F)nn1C)CO2` [Compound 13, 3-(2-(8-chloro-N-(2-fluorobenzyl)-1,7-dimethyl-1,4-dihydrochromeno[4,3-c]pyrazole-3-carboxamido)acetamido)benzoic acid], the pEC50 was 9.10.

Consider `Cc1cc(Cl)cc2c1OCc1c(C(=O)N(CC(=O)Nc3cccc(C(=O)O)c3)Cc3ccccc3F)nn(C)c1-2` [Compound 14, 3-(2-(8-chloro-N-(2-fluorobenzyl)-1,6-dimethyl-1,4-dihydrochromeno[4,3-c]pyrazole-3-carboxamido)acetamido)benzoic acid], for which the pEC50 was 9.08.

Take `Cn1nc(C(=O)N(CC(=O)Nc2cccc(C(=O)O)c2)Cc2ccccc2F)c2c1-c1cc(Cl)cc(F)c1OC2` [Compound 15, 3-(2-(8-chloro-6-fluoro-N-(2-fluorobenzyl)-1-methyl-1,4-dihydrochromeno[4,3-c]pyrazole-3-carboxamido)acetamido)benzoic acid]: the pEC50 was 8.65.

Take `Cn1nc(C(=O)N(CC(=O)Nc2cc(C(=O)O)ccc2F)Cc2ccccc2F)c2c1-c1ccccc1OC2` [Compound 16, 4-fluoro-3-(2-(N-(2-fluorobenzyl)-1-methyl-1,4-dihydrochromeno[4,3-c]pyrazole-3-carboxamido)acetamido)benzoic acid]: the pEC50 was 8.47.

Turning to `Cn1nc(C(=O)N(CC(=O)Nc2cc(C(=O)O)ccc2F)Cc2ccccc2F)c2c1-c1cc(F)c(F)cc1OC2` [Compound 17, 3-(2-(7,8-difluoro-N-(2-fluorobenzyl)-1-methyl-1,4-dihydrochromeno[4,3-c]pyrazole-3-carboxamido)acetamido)-4-fluorobenzoic acid], the pEC50 is 9.00.

On to `Cn1nc(C(=O)N(CC(=O)Nc2cc(C(=O)O)ccc2F)Cc2cccc(F)c2)c2c1-c1cc(F)c(F)cc1OC2` [Compound 18, 3-(2-(7,8-difluoro-N-(3-fluorobenzyl)-1-methyl-1,4-dihydrochromeno[4,3-c]pyrazole-3-carboxamido)acetamido)-4-fluorobenzoic acid], for which the pEC50 is 9.40.

In the case of `Cn1nc(C(=O)N(CC(=O)Nc2cc(C(=O)O)ccc2F)Cc2ccccc2)c2c1-c1cc(F)c(F)cc1OC2` [Compound 19, 3-(2-(N-benzyl-7,8-difluoro-1-methyl-1,4-dihydrochromeno[4,3-c]pyrazole-3-carboxamido)acetamido)-4-fluorobenzoic acid], the pEC50 is 9.30.

Turning to `Cc1cccc(CN(CC(=O)Nc2cc(C(=O)O)ccc2F)C(=O)c2nn(C)c3c2COc2ccc(F)cc2-3)c1` [Compound 20, 4-fluoro-3-(2-(8-fluoro-1-methyl-N-(3-methylbenzyl)-1,4-dihydrochromeno[4,3-c]pyrazole-3-carboxamido)acetamido)benzoic acid], the pEC50 was 9.30.

As to `Cn1nc(C(=O)N(CC(=O)Nc2cccc(C(=O)O)c2)Cc2ccccc2F)c2c1-c1cc(Cl)ccc1CC2` [Compound 24, 3-(2-(8-chloro-N-(2-fluorobenzyl)-1-methyl-4,5-dihydro-1H-benzo[g]indazole-3-carboxamido)acetamido)benzoic acid], the pEC50 was 8.49.

For `Cn1nc(C(=O)N(CC(=O)Nc2cccc(C(=O)O)c2)Cc2ccccc2F)c2c1-c1cc(Cl)c(F)cc1OC2` [Compound 25, 3-(2-(8-chloro-7-fluoro-N-(2-fluorobenzyl)-1-methyl-1,4-dihydrochromeno[4,3-c]pyrazole-3-carboxamido)acetamido)benzoic acid], the pEC50 was 9.15.

For `Cn1nc(C(=O)N(CC(=O)Nc2cc(C(=O)O)ccc2F)Cc2cccc(F)c2)c2c1-c1ccccc1OC2` [Compound 27, 4-fluoro-3-(2-(N-(3-fluorobenzyl)-1-methyl-1,4-dihydrochromeno[4,3-c]pyrazole-3-carboxamido)acetamido)benzoic acid], the pEC50 was 8.85.

Take `Cn1nc(C(=O)N(CC(=O)Nc2cc(C(=O)O)ccc2F)Cc2cccc(F)c2)c2c1-c1cc(Cl)ccc1OC2` [Compound 28, 3-(2-(8-chloro-N-(3-fluorobenzyl)-1-methyl-1,4-dihydrochromeno[4,3-c]pyrazole-3-carboxamido)acetamido)-4-fluorobenzoic acid]: the pEC50 is 9.42.

Take `Cn1nc(C(=O)N(CC(=O)Nc2cc(C(=O)O)ccc2F)Cc2ccccc2)c2c1-c1cc(Cl)ccc1OC2` [Compound 29, 3-(2-(N-benzyl-8-chloro-1-methyl-1,4-dihydrochromeno[4,3-c]pyrazole-3-carboxamido)acetamido)-4-fluorobenzoic acid]: the pEC50 is 9.17.

Regarding `Cc1ccc(C(=O)O)cc1NC(=O)CN(Cc1ccccc1F)C(=O)c1nn(C)c2c1COc1ccc(Cl)cc1-2` [Compound 30], the pEC50 is 9.22.

Regarding `Cn1nc(C(=O)N(CC(=O)Nc2cccc(C(=O)O)c2)Cc2ccccc2)c2c1-c1cc(Cl)ccc1OC2` [Compound 31, 3-(2-(N-benzyl-8-chloro-1-methyl-1,4-dihydrochromeno[4,3-c]pyrazole-3-carboxamido)acetamido)benzoic acid], the pEC50 was 9.33.
